The values below come from patent US20250026776A1, “Method for Simultaneously Separating and Purifying Two Galloylated Myricitrins from Morella rubra Leaves, and Use therefor” (Zhejiang University, priority 2022, published 2025).

Read-outs that look alike come from different tables or passages of the source.

Assay [1] concerns the target α-glucosidase. Briefly: α-glucosidase inhibition assay (PNPG hydrolysis, absorbance at 405 nm). The assay is classed as biochemical. Particulars: α-glucosidase 0.2 U/mL, phosphate buffer pH 6.8, 37° C., PNPG substrate, IC50 calculated with SPSS, read-out: α-glucosidase inhibitory activity IC50. The method, then:
The concentration of pNP in the reaction solution, as measured by a plate reader, allows for the detection of the sample's ability to inhibit the activity of α-glucosidase. […] The mixture is then incubated at 37° C. for 15 minutes, after which 20 μL of PNPG solution (2.5 mM) is added. After a 15-minute reaction at 37° C., 80 μL of Na2CO3 solution (2.5 mM) is added, and the absorbance at 405 nm (ODtest) is measured using a plate reader. […] The formula for calculating the enzyme activity inhibition rate is as follows: [formula] The inhibitory effect of the tested monomers on α-glucosidase a gradient concentrations was used to calculate the IC50 values with SPSS.

Assay [2] concerns α-glucosidase. Particulars: cited from earlier work.

For the molecule `CC1OC(Oc2c(-c3cc(O)c(O)c(O)c3)oc3cc(O)cc(O)c3c2=O)C(O)C(O)C1OC(=O)c1cc(O)c(O)c(O)c1` [myricetin-3-O-(4″-galloyl)-α-L-rhamnoside], the figures for the IC50 in assay [1] (listed as myricetin-3-O-(4″-O-galloyl)-α-L-rhamnoside) and in assay [1] were 15600 nM and 1770 nM, respectively.
As to `O=c1c(O)c(-c2cc(O)c(O)c(O)c2)oc2cc(O)cc(O)c12` [myricetin], the IC50 (usually the midpoint of a concentration-inhibition curve) in assay [1] was 1770 nM. In addition, in assay [2] (comparative study of 27 dietary flavonoids (Jia Y, et al., 2019)), the “rank of α-glucosidase inhibitory activity among 27 dietary flavonoids” value is “strongest inhibitor”. Moreover, the “rank of α-glucosidase inhibitory activity among 15 types of flavonoids” value in assay [2] (report on 15 types of flavonoids (He C., et al., 2019)) is on record as “strongest inhibitory effect”.
For `CC1OC(Oc2c(-c3cc(O)c(O)c(O)c3)oc3cc(O)cc(O)c3c2=O)C(OC(=O)c2cc(O)c(O)c(O)c2)C(O)C1O` [myricetin-3-O-(2″-galloyl)-α-L-rhamnoside], the IC50 in assay [1] is 1320 nM.
